According to patent US20150153325A1 (priority 2012, published 2015):
Where “and” joins values, the source holds several entries; their conditions need not be identical. Equal entries are not always repeated. Where two headings read alike, the source gives them in different places.

What was measured:
ESNs [1] = type: cell-based, mouse
[2] = test system: glutamate-induced neurotoxicity in ESNs; type: cell-based, mouse
VAMP2 = VAMP2 (Mus musculus, UniProt P63044); type: cell-based
ESNs [3] = details: mouse
ESNs [4] = assay: cells; type: cell-based, mouse; details: read-out: EC50 of loss of viability (metabolic activity)
ESNs [5] = type: cell-based, mouse; remark: listed apart in the source
ESNs [6] = type: cell-based, mouse; remark: listed apart in the source
ESNs [7] = type: cell-based, mouse; remark: listed apart in the source
[8] = test system: Ca^2+ influx through LTX pores; type: cell-based, mouse
ESNs [9] = type: cell-based, mouse; remark: listed apart in the source
BoNT/A-intoxicated ESNs = type: cell-based, mouse
ESNs [10] = type: cell-based, mouse; details: read-out: EC50 for Ca^2+ uptake

Chain of VAMP2 (P63044 2-116 limits assumed): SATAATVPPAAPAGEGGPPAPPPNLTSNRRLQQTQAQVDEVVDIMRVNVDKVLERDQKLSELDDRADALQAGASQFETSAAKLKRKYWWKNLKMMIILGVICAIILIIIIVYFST

Question: Which GABA-A receptor current (ESNs [1]) does the source give for `NCc1cc(=O)[nH]o1` [muscimol] here?
Answer: The GABA-A receptor current was “evokes a strong outward Cl− current”.

Question: With `N#Cc1cc2c(cc1[N+](=O)[O-])=NC(=O)C(=O)N=2` [CNQX, 6-cyano-7-nitroquinoxaline-2,3-dione] as the compound, how does the “effect on glutamate-induced cell death” value [2] read?
Answer: Its value is “not protective”.

Question: For Tetanospasmin neurotoxin [tetanus], which “VAMP2 signal by immunoblot” value (VAMP2) is on record?
Answer: Its value is “nearly complete loss of VAMP2 signal”.

Question: How did the “duration of evoked series of action potentials” value (ESNs [1]) turn out when `N[C@@H](CCC(=O)O)C(=O)[O-].[Na+]` [glutamate, Mono-sodium glutamate] was run?
Answer: Its value is 5 to 10 s.

Question: What about the “concentration at which primary necrosis was first observed” value (ESNs [3]) of the same compound?
Answer: The value was 3000 µM.

Question: What about the EC50 (ESNs [4]; Mus musculus, 24 h) of the same compound?
Answer: The EC50 was 410 nM.

Question: And the “Normalize log2 (FC) Casp4” value (ESNs [5])?
Answer: Its value is 2.96.

Question: And the “Normalize log2 (FC) Casp6” value (ESNs [5])?
Answer: Its value is 2.15.

Question: What about the “Normalize log2 (FC) Casp12” value (ESNs [5]) of the same compound?
Answer: Its value is 3.03.

Question: And the “Normalize log2 (FC) Cdk1” value (ESNs [5])?
Answer: The value was 3.11.

Question: What about the “Normalize log2 (FC) CflaR” value (ESNs [5]) of the same compound?
Answer: The value was 2.54.

Question: What about the “Normalize log2 (FC) Dap1” value (ESNs [5]) of the same compound?
Answer: Its value is 2.84.

Question: And the “Normalize log2 (FC) Dapk2” value (ESNs [5])?
Answer: Its value is 4.18.

Question: What about the “Normalize log2 (FC) Dram1” value (ESNs [5]) of the same compound?
Answer: Its value is 2.63.

Question: And the “Normalize log2 (FC) Fadd1” value (ESNs [5])?
Answer: Its value is 1.98.

Question: And the “Normalize log2 (FC) Grin1” value (ESNs [5])?
Answer: The value was 0.39.

Question: And the “Normalize log2 (FC) Pawr” value (ESNs [5])?
Answer: Its value is 3.49.

Question: What about the “Normalize log2 (FC) Snap25” value (ESNs [5]) of the same compound?
Answer: The value was −0.52.

Question: What about the “Normalize log2 (FC) Traf1” value (ESNs [5]) of the same compound?
Answer: Its value is 5.02.

Question: What does the source list for gadolinium chloride [Gd^3+]?
Answer: effect on glutamate-induced cell death [2]: no effect on viability; elimination of acute glutamate-evoked Ca^2+ signal (ESNs [6]): over 95%

Question: How did the “effect on NMDA-induced neurotoxicity” value [2] turn out when `N[C@H](CCCP(=O)(O)O)C(=O)O` [APV, R-2-amino-5-phosphonopentanoate] was run?
Answer: Its value is “blocked in a dose-dependent manner”.

Question: And the “effect on glutamate-induced cell death” value [2]?
Answer: The value was “prevented glutamate-induced cell death in a dose-dependent manner”.

Question: With α-Latrotoxin [LTX] as the compound, how does the “delay between addition and onset of Fluo-4 fluorescence” value (ESNs [7]) read?
Answer: Its value is 1.5 min.

Question: What about the “Ca^2+ influx, normalized to LTX (%)” value [8] of the same compound?
Answer: Its value is 100.0%.

Question: And the “decrease of total protein yield compared to controls” value (ESNs [9])?
Answer: Its value is 44±16% and 52±19%.

Question: And the “decrease of total protein yield relative to untreated cultures” value (ESNs [9])?
Answer: Its value is “approximately 50%”.

Question: What about the “rescue of full-length SNAP-25” value (BoNT/A-intoxicated ESNs) of the same compound?
Answer: Its value is 92±4.6% and 98±1.7%.

Question: What about the EC50 (ESNs [10]) of the same compound?
Answer: Its EC50 is 0.175 nM.

Question: With `CN[C@H](CC(=O)O)C(=O)O` [NMDA, N-methyl-D-aspartate] as the compound, how does the EC50 (ESNs [4]) read?
Answer: The EC50 was 390 nM.

Question: Which “acute Ca^2+ uptake” value (ESNs [6]) does the source give for `NCCCC(=O)O` [GABA, γ-aminobutyric acid] here?
Answer: The value was “no effect”.
